Results published in patent US20210388022A1, “SUBSTITUTED GUANIDINO AND AMIDINO REAGENTS AND THE USE THEREOF FOR PROTEIN DENATURATION” (Waters Technologies Corporation, priority 2020, published 2021).
Structures can show the parent of a compound that is named as a salt.

Key:
[1] = test system: Polyclonal rabbit IgG (rIgG); assay: Native fluorescence assay of rabbit IgG denaturation (ex 280 nm, emission ratio 376/360 nm); format: biochemical; conditions: for denaturing power (in words): 5 mM concentration and lower temperatures
Procedure: To determine the effectiveness of the guanidine and amidine reagents from the table of FIG. 8, a native fluorescence assay was established using rabbit IgG. Upon excitation at 280 nm, emission was measured ratiometrically at two wavelengths 376 and 360 nm.
Fluorescence spectra were acquired at an excitation wavelength of 280 nm and emission intensity is reported as a ratio of 376 nm intensity divided by 360 nm intensity. An increase in 1376/1360 denotes a change in the microenvironment of tryptophan residues—specifically, their change from a hydrophobically surrounded native state to a solvent exposed denatured state.
The IgG sample was subjected to concentrations of 0.5, 5, and 50 mM and temperatures of either ambient, 50° C., 70° C., or 90° C. […] Fluorescence was performed with an excitation wavelength of 280 nm.
Polyclonal rabbit IgG (rIgG) was used as a test protein to evaluate the denaturation power of various reagents. The rIgG protein was dissolved and diluted to a concentration of 0.25 mg/mL with water, while also being subjected to the chemical compound of interest and an incubation at either room temperature, 50° C., 70° C., or 90° C. To generate a positive control for complete denaturation, the rIgG sample was subjected to room temperature incubations with guanidine hydrochloride at 0 and up to 8M concentrations. Native fluorescence of the resulting sample was thereafter measured using an excitation wavelength of 280 nm. Emission intensities at 376 and 360 nm were subsequently detected and reported as a ratio as a sensitive measure of rIgG denaturation and a change in the local environment of tryptophan residues.
Fluorescence intensity ratios obtained after incubation with reagent #1, reagent #2, and reagent #3 and either ambient, 50° C., 70° C., or 90° C. temperatures are provided in FIG. 3. Likewise, fluorescence intensity ratios obtained after incubation with reagent #4, reagent #5, and reagent #6 and either ambient, 50° C., 70° C., or 90° C. temperatures are provided in FIG. 4. In all experiments, the substituted guanidine and amidines were titrated to a neutral pH and their protonated ionization states prior to being incubated with protein sample.

[2] = target: T1, Orencia® (abatacept), a glycosylated fusion protein (Homo sapiens, UniProt P16410, C103S); assay: Denaturation then PNGase F deglycosylation of abatacept, intact protein RPLC-MS; format: biochemical; conditions: 5 mM reagent, short 90° C. incubation, no desalting, PNGase F at 50° C.
T1 construct: modified human IgG1 Fc (hinge-CH2-CH3) fusion partner; purchased Bristol-Myers Squibb
T1 sequence (P16410 with tags, fused parts or gaps limits assumed, stated change not applied): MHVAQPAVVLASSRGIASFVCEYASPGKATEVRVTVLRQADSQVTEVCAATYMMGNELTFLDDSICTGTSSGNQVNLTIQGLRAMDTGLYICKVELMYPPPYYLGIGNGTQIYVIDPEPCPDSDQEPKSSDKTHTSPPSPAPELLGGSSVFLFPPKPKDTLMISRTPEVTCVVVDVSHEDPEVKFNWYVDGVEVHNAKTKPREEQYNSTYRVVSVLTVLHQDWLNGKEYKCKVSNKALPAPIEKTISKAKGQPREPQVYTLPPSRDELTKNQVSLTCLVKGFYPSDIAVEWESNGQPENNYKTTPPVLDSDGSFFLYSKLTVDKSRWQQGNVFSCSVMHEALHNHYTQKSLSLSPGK
Procedure: An Orencia® stock solution (20 mg/mL) was diluted 10 times with water to a concentration of 2 mg/mL, followed by the addition of 10 μL diluted sample into three 1 mL polypropylene tubes. Four (4) μL of 50 mM guanidino reagents, tetramethylguanidine (reagent #1), t-butyl tetramethylguanidine (reagent #2), and trazabicyclodecene (reagent #3), were added into each tube, separately. Finally, 8 μL of 50 mM HEPES, pH 7.9 buffer was transferred into each tube along with 16.4 μL of water.
The contents of each well were subsequently mixed by aspiration. Each sample was then incubated at 90° C., 3 minutes for denaturation and then removed from the heating block to cool at room temperature for 3 minutes. Each denatured glycoprotein sample was treated with 1.6 μL of GlycoWorks Rapid PNGase F at 50° C. for 5 minutes. Aliquots containing 10 μL of each deglycosylated sample were submitted for intact protein analysis, while the remaining 30 μL samples were subjected to RapiFluor-MS™ labeling and released glycan analysis (see details in Example 3).
Additionally, two controls were applied. For a positive control (FIG. 5D), 5 μL of Orencia® stock solution was mixed with 45 μL of 8M guanidine hydrochloride at room temperature, followed by desalting with a Thermo Zeba spin column. The resulting, 10 μL desalted sample was mixed with 8 μL of 50 mM HEPES, pH 7.9, 20.4 μL of water and 1.6 μL of GlycoWorks Rapid PNGase F before being incubated at 50° C. for 5 min to perform deglycosylation. Ten (10) μL of this deglycosylated protein, as well as 10 μL of 2 mg/mL Orencia® solution without denaturation, were tested as positive and negative controls of intact protein analysis. LCMS settings and parameters used for intact protein analysis are listed below in Table 1.

Orencia® (abatacept) = target: T2, Orencia® (abatacept) (Homo sapiens, UniProt P16410, C103S); assay: N-glycan release and RapiFluor-MS labeling after denaturation, LC-FLR-MS profile; conditions: 5 mM tetramethylguanidine denatured Orencia®, no desalting
T2 construct: modified human IgG1 Fc (hinge-CH2-CH3) fusion partner; purchased Bristol-Myers Squibb
T2 sequence (P16410 with tags, fused parts or gaps limits assumed, stated change not applied): as above
Procedure: In the example of FIG. 6, abatacept was denatured with 5 mM tetramethylguanidine at a 90° C. and incubated at 50° C. with PNGase F. The resulting N-glycosylamines were there derivatized with RapiFluor-MS™ and cleaned up with solid phase extraction using a GlycoWorks RapiFluor-MS™ N-glycan kit (according to manufacturer recommendations; Waters Technologies Corporation, Milford, Mass.). RapiFluor-MS™ labeled N-glycans from this tetramethylguanidinium denatured sample were thereafter profiled by […].
Thirty (30) μL of deglycosylated protein was labeled with 12 μL of RapiFluor-MS™ solution (68.7 mg/mL in DMF) for 5 minutes at room temperature, followed by dilution with 358 μL of acetonitrile for SPE clean-up. The total of 400 μL mixed solution was transferred to a pre-conditioned HILIC μElution SPE plate staged for operation on a positive pressure manifold with 3 psi pressurization. Each sample was loaded onto the plate and then twice washed with 600 μL of 1:9:90 (v/v/v) formic acid/water/acetonitrile. Finally, released glycans were eluted from individual wells with three, 30 μL of 200 mM ammonium acetate in 5% acetonitrile. Eluate was collected and transferred in LC vials for analysis. LC-FLR-MS settings and parameters used in these experiments are listed below in Table 2.

## CCCCCCCCCCCC1(C)OCC(COCCCS(=O)(=O)[O-])O1.[Na+] (stereo not drawn) [RapiGest SF]
[1]; 1% (w/v) RapiGest SF [~24 mM], suggests only partial denaturation
  fluorescence intensity ratio of rIgG: approximately 1.4

## CN(C)C(=N)N(C)C [Reagent 1, 1,1,3,3-tetramethylguanidine]
[1]
  denaturing power (in words): significantly reduced
[2]
  extent of PNGase F deglycosylation of abatacept after denaturation: as extensively deglycosylated as the guanidinium hydrochloride denatured controls
Orencia® (abatacept)
  interference in LC-FLR-MS data of RapiFluor-MS labeled N-glycans: no significant interferences

## CN(C)C(=NC(C)(C)C)N(C)C [Reagent 2, 2-tert-butyl-1,1,3,3-tetramethylguanidine]
[1]
  denaturing power (in words): significantly reduced
[2]
  extent of PNGase F deglycosylation of abatacept after denaturation: as extensively deglycosylated as the guanidinium hydrochloride denatured controls

## C1CN=C2NCCCN2C1 [Reagent 3, 1,5,7-triazabicyclo[4.4.0]dec-5-ene]
[1]
  denaturing power (in words): significantly reduced
[2]
  extent of PNGase F deglycosylation of abatacept after denaturation: as extensively deglycosylated as the guanidinium hydrochloride denatured controls

## N=C(N)N [guanidine, guanidine hydrochloride, reference compound]
[1]; 8M guanidine, room temperature, native state rIgG approximately 1.3
  fluorescence intensity ratio of rIgG: approximately 1.6
